We go through three compounds from US12486253B2, “Therapeutics for the degradation of mutant BRAF” (C4 THERAPEUTICS, INC., priority 2021, dated 2025).

Assay [1] has as its system ERK phosphorylation. The assay is described as follows: Western blot of ERK phosphorylation in A375 cells expressing NRAS^Q61K. The format is cell-based. Particulars: 24 hours. Background: In western blotting, separated proteins are transferred to a membrane and probed.
Assay [2] relates to A375 cells expressing the oncogenic NRAS^Q61K mutation. Nature of the assay: Cellular growth over time of A375 cells expressing NRAS^Q61K. The format is cell-based.
Assay [3] has as its system A375 NRAS^Q61K mutant melanoma cell line xenograft. Nature of the assay: In vivo efficacy in A375 NRAS^Q61K mutant melanoma xenograft. Also noted: species or system BALBc/Nude mice. To be noted: oral gavage, with MEKi trametinib 0.1 mg/kg BID.
Assay [4] relates to H1666 cells endogenously expressing the class III BRAF mutation G466V. Nature of the assay: Cellular growth over time in H1666 cells. The format is cell-based. To be noted: G466V.
For assay [5], the system named is phospho-ERK (T202/Y204). Nature of the assay: HTRF phospho-ERK (T202/Y204) inhibition assay in A375 cells. Format: cell-based. Particulars: Homo sapiens, A-375, 24 hrs, mean of at least n = 3, read-out: pERK IC50. How it is done:
A375 (harboring BRAF homozygous V600E mutation) were purchased from ATCC. DMEM Medium without phenol red and supplemented with L-glutamine was purchased from Corning (Corning, NY, USA). Advanced phospho-ERK (Thr202/Tyr204) HTRF assay kits were purchased from Cisbio (Bedford, MA, USA). Cell culture flasks and 384-well microplates were acquired from VWR (Radnor, PA, USA) or Corning (Corning, NY, USA).
(§1) Degradation of activated phospho-ERK (T202/Y204) protein was determined based on quantification of FRET signal using the Advanced phospho-ERK (T202/Y204) HTRF assay kit. Test compounds were added to the 384-well plate from a top concentration of 10 μM with 11 points, half log titration in duplicates. A375 cells were added into 384-well plates at a cell density of 8000 cells per well, respectively. The plates were kept at 37° C. with 5% CO2 for 24 hours. Cells treated in the absence of the test compound were the negative control. Positive control was set by wells containing all reagents but no cells. FRET signal was acquired on EnVision™ Multilabel Reader (PerkinElmer, Santa Clara, CA, USA).

Assay [6] deals with A375 cells. Nature of the assay: CellTiter-Glo cell growth inhibition, A375 cells. Format: cell-based. Particulars: Homo sapiens, A-375, 72 hr, mean of at least n = 3. How it is done: (§2) A375 cell viability was determined based on quantification of ATP using CellTiter-Glo® 2.0 luminescent Assay kit, which signals the presence of metabolically-active cells. Briefly, test compound was added to 384-well plates at a top concentration of 10 μM with 14 points, half log titration in duplicates. A375 cells were seeded into the 384-well plates in DMEM medium containing 10% FBS at a cell density of 250 cells per well. Cells treated in the absence of the test compound were the negative control, normalized to 100% viability, and cells treated in the absence of CellTiter-Glo® 2.0 were the positive control, normalized to 0% viability. A375 cells were incubated at 37° C. with 5% CO2 for 72 hr. CellTiter-Glo reagent was then added to the cells and Luminescence was acquired on EnVision™ Multilabel Reader (PerkinElmer, Santa Clara, CA, USA).
For orientation: Cellular ATP, detected with luciferase, serves as a proxy for viable cell number.

The subject of assay [7] is phospho-ERK (T202/Y204). Nature of the assay: HTRF phospho-ERK (T202/Y204) assay in A375-NRAS^Q61K cells. The format is cell-based. Particulars: 24 hrs, mean of at least n = 3, read-out: pERK IC50.
Source text: A375-NRAS^Q61K cells (harboring BRAF homozygous V600E mutation and NRAS homozygous Q61K mutation) were purchased from ATCC. DMEM Medium without phenol red and supplemented with L-glutamine was purchased from Corning (Corning, NY, USA). Advanced phospho-ERK (Thr202/Tyr204) HTRF assay kits were purchased from Cisbio (Bedford, MA, USA). Cell culture flasks and 384-well microplates were acquired from VWR (Radnor, PA, USA) or Corning (Corning, NY, USA).
as §1, with “A375-NRAS^Q61K” for “A375”, “2000” for “8000”, “well.” for “well, respectively.”
In general terms: TR-FRET usually uses a lanthanide donor and a delayed reading to cut background.

Assay [8] deals with A375-NRAS^Q61K cells. Nature of the assay: CellTiter-Glo growth inhibition assay, A375-NRAS^Q61K cells. Format: cell-based. Particulars: 96 hr, mean of at least n = 3. How it is done:
A375-NRAS^Q61K cells (harboring BRAF homozygous V600E mutation and NRAS homozygous Q61K mutation) were purchased from ATCC. DMEM Medium (without phenol red and supplemented with L-glutamine) was purchased from Corning (Corning, NY, USA). CellTiter-Glo® 2.0 Assay was purchased from Promega (Madison, WI, USA). Cell culture flasks and 384-well microplates were acquired from VWR (Radnor, PA, USA) or Corning (Corning, NY, USA).
as §2, with “A375-NRAS^Q61K cell viability” for “A375 cell viability”, “in duplicates. A375-NRAS^Q61K cells were” for “in duplicates. A375 cells were”, “CO2 for 96 hr. CellTiter-Glo” for “CO2 for 72 hr. CellTiter-Glo”

Assay [9] deals with ERK phosphorylation. Nature of the assay: ERK phosphorylation (pERK) in A375 cells. Format: cell-based.
The test system of assay [10] is A375 cells. Nature of the assay: Cellular confluence of A375 cells by live cell imaging. Particulars: end of the 7-day experiment. The format is cell-based.
In assay [11] the target is BRAF V600E, test compound and CRBN ternary complex (Homo sapiens, UniProt P15056+Q96SW2, V600E). The assay is described as follows: AlphaLISA ternary complex formation assay. Particulars: GST-BRAF V600E 16 nM, His-CRBN 64 nM. The format is binding. How it is done: Formation of the ternary complex between BRAF V600E, test compound and CRBN was quantified using AlphaLISA® assay. GST-tagged BRAF V600E and His-tagged CRBN were labeled with a donor/acceptor AlphaLISA® pair, and complex formation was monitored via a change in the Alpha-signal. Signal from the control wells was used as a normalization control.
Characterization of the ternary complex formation between GST-BRAF V600E, Compound 157 and his-CRBN was carried out using an AlphaLISA® assay. Compounds were dispensed from serially diluted DMSO stock in low dead volume plates into gray 384-well AlphaPlates using acoustic technology to 1% of total reaction volume. Compounds were arranged vertically in rows A through P. Concentration series were horizontal: columns 1-11, and then duplicates in columns 12-22.
Excitation of the donor beads results in generation of singlet oxygen molecules. […]
A 10 μL mixture containing 16 nM of BRAF V600E and 64 nM of CRBN in 50 mM HEPES (pH 7.4), 200 mM NaCl, 1 mM TCEP, 0.05% Pluronic Acid, 0.1% BSA was added to the wells containing test compounds (columns 1-22) and the negative control wells (column 23). […] Plates were then read on an Envision plate reader with an appropriate AlphaLISA® filter set.

The target in assay [12] is BRAF V600E (Homo sapiens, UniProt P15056, V600E). Nature of the assay: Western blot of BRAF V600E levels in A375 cells. Format: cell-based. Also noted: host or cells: A375.
The subject of assay [13] is LOXL4. The assay is described as follows: Global proteomics profiling, A375 cells. Particulars: 300 nM, 24 hours. The format is cell-based, human. On the procedure:
Each cell line was treated in duplicate with either DMSO or Compound 157 (final concentration 300 nM) for 24 hours in an incubator at 37° C. with 5% CO2. After the 24-hour incubation, cells were harvested, washed twice with PBS, and snap frozen in liquid nitrogen. Samples were re-suspended in lysis buffer [8 M urea, 50 mM HEPES (pH 8.5), 50 mM NaCl, 1× protease inhibitor cocktail] and lysed by sonication at 4° C. with 85% amplitude in a pulse setting with 30 seconds on and 30 seconds off for a total sonication time of 5 minutes. Lysates were centrifuged at maximum speed for 10 minutes at 4° C. and the supernatant collected, reduced for 1 hour at room temperature with 5 mM TCEP, and the cysteine residues were then alkylated with 15 mM iodoacetamide (room temperature, in dark, 30 minutes). Protein content was extracted by methanol-chloroform precipitation and subsequent ice-cold acetone washes. Protein pellets were resuspended in 8 M urea, 50 mM HEPES (pH 8.5) buffer and protein concentrations were measured by BCA assay. […]
For peptide tandem mass tag (TMT) labeling, 100 μg of peptides per sample was prepared at […] concentration in 200 mM HEPES (pH 8.5), 30% acetonitrile (ACN) and each the specific TMT reagent. […] TMT reporter ion intensities were quantified by extracting the signal-to-noise ratio for each. […]

SMILES strings stand for the structures. Entries after “also recorded” stand apart in the source; their conditions may differ.

Chain of BRAF V600E (P15056 whole entry V600E): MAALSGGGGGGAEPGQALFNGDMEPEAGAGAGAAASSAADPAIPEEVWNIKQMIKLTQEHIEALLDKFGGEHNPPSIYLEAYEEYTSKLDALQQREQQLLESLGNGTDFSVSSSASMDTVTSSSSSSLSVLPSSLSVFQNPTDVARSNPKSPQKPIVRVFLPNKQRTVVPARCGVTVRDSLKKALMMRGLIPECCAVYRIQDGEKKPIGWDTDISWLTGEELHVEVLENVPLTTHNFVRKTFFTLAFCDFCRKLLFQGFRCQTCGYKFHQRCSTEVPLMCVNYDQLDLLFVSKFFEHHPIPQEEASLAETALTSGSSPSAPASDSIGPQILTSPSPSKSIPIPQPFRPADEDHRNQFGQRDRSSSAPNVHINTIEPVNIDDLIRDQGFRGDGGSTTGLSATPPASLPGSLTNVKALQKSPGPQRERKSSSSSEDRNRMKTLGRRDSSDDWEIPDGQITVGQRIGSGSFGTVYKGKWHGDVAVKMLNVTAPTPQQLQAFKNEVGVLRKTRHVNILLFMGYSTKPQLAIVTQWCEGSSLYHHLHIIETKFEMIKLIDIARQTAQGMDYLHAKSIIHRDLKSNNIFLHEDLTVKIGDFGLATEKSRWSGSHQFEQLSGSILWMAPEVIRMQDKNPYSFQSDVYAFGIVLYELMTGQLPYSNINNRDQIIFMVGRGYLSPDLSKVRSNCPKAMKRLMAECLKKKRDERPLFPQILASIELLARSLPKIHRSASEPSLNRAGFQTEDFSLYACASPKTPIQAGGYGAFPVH
Chain of BRAF V600E, test compound and CRBN ternary complex (P15056 whole entry V600E): as above
Chain of BRAF V600E, test compound and CRBN ternary complex (Q96SW2 whole entry): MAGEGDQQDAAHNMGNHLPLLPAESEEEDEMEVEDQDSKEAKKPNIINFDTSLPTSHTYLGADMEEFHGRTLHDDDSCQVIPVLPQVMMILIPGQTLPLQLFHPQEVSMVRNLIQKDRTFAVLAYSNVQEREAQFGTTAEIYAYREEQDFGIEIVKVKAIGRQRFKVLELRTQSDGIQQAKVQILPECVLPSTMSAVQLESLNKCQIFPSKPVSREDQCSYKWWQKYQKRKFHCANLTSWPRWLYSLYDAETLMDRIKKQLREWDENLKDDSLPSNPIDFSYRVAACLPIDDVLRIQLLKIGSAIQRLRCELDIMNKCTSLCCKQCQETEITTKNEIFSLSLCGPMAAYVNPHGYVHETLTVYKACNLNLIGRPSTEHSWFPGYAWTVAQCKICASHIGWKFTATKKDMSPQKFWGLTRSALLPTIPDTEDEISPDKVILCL

By IC50 is commonly meant the concentration needed to halve the response being measured. Usually GI50 stands for the concentration giving 50% growth inhibition. Read a high GI50 as less potent growth inhibition. In the case of `COC(=O)N[C@@H](C)CNc1nccc(-c2cn(C(C)C)nc2-c2cc(Cl)cc(NS(C)(=O)=O)c2F)n1` [encorafenib, reference compound], in assay [1] (with 1 nM trametinib), the “ERK phosphorylation, in combination with trametinib” value is “unable to significantly suppress”. Further, the “ERK phosphorylation, alone” value in assay [1] (without trametinib) is listed as “unable to significantly suppress”. Moreover, the cell growth inhibition entry in assay [2] was “does not inhibit cell growth”; in assay [4], “no activity; also recorded: does not inhibit cell growth”. Moreover, in assay [3], the “tumor response, in combination with trametinib” value is given as “no activity”. Also, the values for the IC50 in assay [5] and in assay [7] were 2.1 nM and 31 nM, respectively. Also, the GI50 in assay [6] was found to be 8 nM; in assay [8], 911 nM.
In the case of `CCN(C)S(=O)(=O)Nc1ccc(F)c(Oc2ccc3ncn([C@H]4COC5(CCN(C(=O)CC6(O)CCN(c7cc8c(cc7F)c(N7CCC(=O)N(C)C7=O)nn8C)CC6)CC5)C4)c(=O)c3c2)c1C#N` [Compound 157^NMe, reference compound], in assay [9], the “ERK phosphorylation by western blot” value was “not as pronounced”. Further, the values for the cell growth inhibition result in assay [2] and in assay [4] were “not inhibited” and “not inhibited as significantly”, respectively. Moreover, the cellular confluence entry in [10] is reported as “approximately 70%”. Also, the IC50 was 13.5 nM in assay [5] and 36.8 nM in [7]. Besides, the results for the GI50 in [6] and in assay [8] were 22.5 nM and 794 nM, respectively. Further, the “Ternary complex formation (concentration dependence)” value in assay [11] is on record as “no complex formation was observed”. In addition, the “BRAF V600E levels” value in assay [12] was “remain unchanged”.
As for `CC(C)(C)c1nc(-c2cccc(NS(=O)(=O)c3c(F)cccc3F)c2F)c(-c2ccnc(N)n2)s1` [dabrafenib, reference compound], in assay [13], the “LOXL4 protein level change” value is listed as “decreased on the dabrafenib treated samples, to a lesser extent”.
